Assay results taken from patent US20240166726A1, “UNIVERSAL TARGETING STRATEGY TO INHIBIT REPLICATION OF ZIKV AND FLAVIVIRUSES” (Sanford Burnham Prebys Medical Discovery Institute, priority 2022, published 2024).

Key:
[1] = molecular target: T1, ZIKV NS2B-NS3pro (Zika virus, UniProt A0A024B7W1); assay: Inhibition of ssRNA binding to NS2B-NS3pro by inhibitors (RNA FP assay)
T1 construct: hydrophilic cytoplasmic portion of NS2B (residues 48-94) was linked to the NS3 protease domain; was linked to the NS3 protease domain via a 9-residue linker L; His tag (N, cleaved yes); made in house; host or cells: E. coli BL21 (DE3) Codon Plus
From the text: The DNA constructs were cloned into pGEX6P1 plasmid using BamH1 and EcoR1 cleavage sites, resulting in fusion of a GST tag at the N-terminus of the NS2B cofactor. E. coli were transformed with the individual recombinant constructs, and protein production was induced and the cells were disrupted as described above. The supernatant fraction containing the GST-tagged constructs were loaded onto Protino Glutathione Agarose 4B beads and impurities were removed by washing with TBS. To cleave the GST tag from the viral protease, the beads were co-incubated with 3C protease. The NS2B-NS3pro constructs were then additionally purified by gel filtration on an S200 26/60 column equilibrated with TBS. Purity of the purified construct was analyzed using SDS-PAGE followed by Coomassie staining. Purified protease was concentrated to approximately 10 mg/ml using 10 kDa-cutoff concentrators, flash frozen in small aliquots, and stored at −80° C. […]
Fluorescence polarization assay of RNA/ssDNA binding to ZIKV NS2B-NS3 protease. Binding between purified recombinant ZIKV NS2B-NS3pro constructs and either RNA or ssDNA was assessed using a fluorescence polarization (FP) assay conducted in 0.1 ml of TBS containing 1 mM MgCl2 at 25° C. for 1 h. […] Polarization was monitored on a Bruker Daltonics fluorescence spectrophotometer. […]

[2] = molecular target: T1, ZIKV NS2B-NS3pro; assay: Fluorescent proteinase activity assay (Pyr-RTKR-AMC cleavage); format: biochemical
Procedure: Fluorescent proteinase activity assay and IC50 determination. The peptide cleavage activity assays with purified ZIKV NS2B-NS3pro polypeptides were performed in 0.2 ml TBS containing 20% glycerol and 0.005% Brij 35 containing 20 μM of the cleavage peptide pyroglutamic acid Pyr-Arg-Thr-Lys-Arg-7-amino-4-methylcoumarin (Pyr-RTKR-AMC) and 10 nM enzyme. The reaction velocity was monitored continuously at λex=360 nm and λem=465 nm on a Tecan fluorescence spectrophotometer (Männedorf, Switzerland). To determine the IC50 values of the inhibitory compounds, ZIKV NS2B-NS3pro constructs (20 nM) were preincubated for 30 min at 20° C. with various concentrations of compounds in 0.1 ml TBS containing 20% glycerol and 0.005% Brij 35. Pyr-RTKR-AMC substrate (20 μM) was then added in 0.1 ml of the same buffer. IC50 values were calculated by determining the compound concentration required to obtain 50% of the maximal inhibition of NS2B-NS3pro activity against Pyr-RTKR-AMC. GraphPad Prism was used as fitting software. All assays were performed in triplicate in 96-well plates.
Fluorogenic substrate cleavage assays were performed to test whether binding of RNA interferes with the proteolytic activity of NS2B-NS3pro.

[3] = molecular target: T2, DENV2 NS2B-NS3pro (Dengue virus type 2, UniProt P29990); assay: Inhibition of NS2B-NS3pro proteolysis, DENV2; format: biochemical; settings: in vitro
T2 construct: comprises an NS2B polypeptide that associates with a proteolytic N-terminal fragment of NS3 polypeptide (NS3pro); a proteolytic N-terminal fragment of NS3 polypeptide (NS3pro) to form NS2B-NS3pro
From the text: (§1) The open conformation of NS2B-NS3pro is formed by rearrangement/dissociation of the NS2B cofactor from the C-terminal half of NS3pro, leading to a loss of proteolytic activity. NS2B dissociation uncovers a hydrophobic cleft in NS3pro, which presents a druggable pocket that is relatively conserved between the flaviviruses. Allosteric inhibitors of ZIKV, WNV, and DENV2 NS2B-NS3pro were designed in silico to bind a region of NS2B-NS3pro distant from the proteolytic active site. […] RNA binding to ZIKV NS2B-NS3pro was tested with a sub-library of these inhibitors, and some compounds were potent inhibitors of RNA binding to ZIKV NS2B-NS3pro, as depicted in FIG. 7. In Top of FIG. 7, small molecule allosteric inhibitors (10 μM) targeting open/super-open conformations of ZIKV NS2B-NS3pro block ssRNA binding. Fluorescent polarization (%) using FAM labeled ssRNA (20 poly-rU). * p<0.05, […], *** p<0.0005, […] by two-tailed unpaired t-test with Welch's correction. In Bottom of FIG. 7, IC50 for inhibition of ZIKV, WNV, and DENV2 NS2B-NS3pro proteolysis by the indicated inhibitors. […] NSC86314 was previously shown to inhibit WNV and DENV2 replicons in cell-based assays with IC50 values of<50 μM. […]

[4] = test system: DENV2 replicons; settings: cell-based assays, previously shown; cited from earlier work
[5] = test system: WNV replicons; settings: cell-based assays, previously shown; cited from earlier work
[6] = molecular target: T3, WNV NS2B-NS3pro (West Nile virus, UniProt P06935); assay: Inhibition of NS2B-NS3pro proteolysis, WNV; format: biochemical; settings: in vitro
T3 construct: comprises an NS2B polypeptide that associates with a proteolytic N-terminal fragment of NS3 polypeptide (NS3pro); a proteolytic N-terminal fragment of NS3 polypeptide (NS3pro) to form NS2B-NS3pro
From the text: as §1

T1 sequence (A0A024B7W1 1503-1680): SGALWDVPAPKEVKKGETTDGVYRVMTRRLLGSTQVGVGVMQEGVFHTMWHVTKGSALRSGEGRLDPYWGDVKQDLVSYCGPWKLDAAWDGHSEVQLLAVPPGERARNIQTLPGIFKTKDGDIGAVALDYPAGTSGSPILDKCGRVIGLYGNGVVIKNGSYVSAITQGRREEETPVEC
T1 sequence (A0A024B7W1 1420-1466): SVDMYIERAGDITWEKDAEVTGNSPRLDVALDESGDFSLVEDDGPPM
T3 sequence (P06935 1371-1501): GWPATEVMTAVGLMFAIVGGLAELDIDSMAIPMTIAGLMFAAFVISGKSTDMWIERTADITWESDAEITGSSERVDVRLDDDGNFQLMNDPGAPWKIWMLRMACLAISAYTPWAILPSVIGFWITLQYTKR
T3 sequence (P06935 1502-1679): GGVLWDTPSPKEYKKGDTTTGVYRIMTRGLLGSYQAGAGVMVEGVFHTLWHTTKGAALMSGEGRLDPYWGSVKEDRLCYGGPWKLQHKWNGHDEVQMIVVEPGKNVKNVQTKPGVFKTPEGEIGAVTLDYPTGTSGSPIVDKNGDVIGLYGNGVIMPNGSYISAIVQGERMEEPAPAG
T2 sequence (P29990 1346-1475): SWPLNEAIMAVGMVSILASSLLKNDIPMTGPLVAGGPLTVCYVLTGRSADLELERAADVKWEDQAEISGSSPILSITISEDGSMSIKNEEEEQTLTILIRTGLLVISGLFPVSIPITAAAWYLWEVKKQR
T2 sequence (P29990 1476-1653): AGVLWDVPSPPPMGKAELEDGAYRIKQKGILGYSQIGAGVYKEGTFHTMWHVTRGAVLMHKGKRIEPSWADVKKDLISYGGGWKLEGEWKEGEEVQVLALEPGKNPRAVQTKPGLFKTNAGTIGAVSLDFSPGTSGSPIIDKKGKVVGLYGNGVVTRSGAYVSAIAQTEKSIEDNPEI

Q: For aprotinin, which “RNA binding to purified NS2B-NS3pro-inhibitor complex” value ([1]; closed conformation induced by substrate-mimicking inhibitor) is on record?
A: Its value is “no RNA binding”.

Q: Which results are given for `O=C(O)c1cc(/N=N/c2ccc(S(=O)(=O)Nc3nccs3)cc2)ccc1O` [NSC114428]?
A: Inhibition of proteolytic activity of ZIKV protease ([2]; FIG. 7): low μM range; Inhibition of RNA binding ([1]; FIG. 7): low μM range

Q: For `Nc1cc(N)c(N=Nc2ccc(S(=O)(=O)Nc3nccs3)cc2)cc1N=Nc1ccc(S(=O)(=O)Nc2nccs2)cc1` [NSC86314], which “IC50, NS2B-NS3pro from DENV” value [3] is on record?
A: Its value is “low to sub-micromolar”.

Q: What about the IC50 [4] of the same compound?
A: Its IC50 is < 50 µM.

Q: And the “IC50, NS2B-NS3pro from ZIKV” value ([2]; in vitro)?
A: Its value is “low to sub-micromolar”.

Q: What about the IC50 [5] of the same compound?
A: Its IC50 is < 50 µM.

Q: And the “IC50, NS2B-NS3pro from WNV” value [6]?
A: The value was “low to sub-micromolar”.
